Assay results: patent publication US6576620B2, “Method of identifying partial adenosine A1 receptor agonists” (CV Therapeutics, Inc., priority 1999, dated 2003)

System: Adenosine A1 receptor
Assay: A1-agonist stimulated [35S]GTPγS binding to G proteins
Type: biochemical
Conditions: normalized to the full agonist CPA
Method: At the end of the incubation, each suspension was filtered and the retained radioactivity determined as described above.

[1] = Table 1, compounds of Example 2

Compound | GTPγS (Table 3, compounds of Example 4) [%] | GTPγS [1] [%]
COC(=S)NC[C@H]1O[C@@H](n2cnc3c(N[C@@H]4CCOC4)ncnc32)[C@H](O)[C@@H]1O [Compound 71 of Example 2] | – | 98
O[C@@H]1[C@H](O)[C@@H](COC(=S)N[C@H]2CCC[C@@H]2OCc2ccccc2)O[C@H]1n1cnc2c(N[C@@H]3CCOC3)ncnc21 [Compound 56 of Example 2, 2-{6-[((3R)oxolan-3-yl)amino]purin-9-yl}(4S,2R,3R,5R)-5-[({[(1S,2S)-2-(phenylmethoxy)cyclopentyl]amino}thioxomethoxy)methyl]oxolane-3,4-diol] | – | 52
C=CCNC(=S)OC[C@H]1O[C@@H](n2cnc3c(N[C@@H]4CCOC4)ncnc32)[C@H](O)[C@@H]1O [Compound 60 of Example 2, 2-{6-[((3R)oxolan-3-yl)amino]purin-9-yl}(4S,2R,3R,5R)-5-{[(prop-2-enylamino)thioxomethoxy]methyl}oxolane-3,4-diol] | – | 77
O[C@@H]1[C@H](O)[C@@H](COC(=S)N2CCCCC2)O[C@H]1n1cnc2c(N[C@@H]3CCOC3)ncnc21 [Compound 50 of Example 2, 2-{6-[((3R)oxolan-3-yl)amino]purin-9-yl}(4S,2R,3R,5R)-5-[(piperidylthioxomethoxy)methyl]oxolane-3,4-diol] | – | 88
O=C(NC1CCCC1)SC[C@H]1O[C@@H](n2cnc3c(N[C@@H]4CCOC4)ncnc32)[C@H](O)[C@@H]1O [Compound 73 of Example 2, [(5-{6-[((3R)oxolan-3-yl)amino]purin-9-yl}(2S,3S,4R,5R)-3,4-dihydroxyoxolan-2-yl)methythio]-N-cyclopentylcarboxamide] | – | 109
O=C(NC1CCC1)OC[C@H]1O[C@@H](n2cnc3c(N[C@@H]4CCOC4)ncnc32)[C@H](O)[C@@H]1O [Compound 39 of Example 2, [(5-{6-[((3R)oxolan-3-yl)amino}purin-9-yl}(3S,2R,4R,5R)-3,4-dihydroxyoxolan-2-yl)methoxy]-N-cyclobutylcarboxamide] | – | 67

More lines, now with the values ahead:

GTPγS (Table 3, compounds of Example 4) [%] | GTPγS [1] [%] | Compound
31 | – | O[C@@H]1[C@H](O)[C@@H](CSc2ccc(C(F)(F)F)cc2)O[C@H]1n1cnc2c(N[C@@H]3CCOC3)ncnc21 [Compound 16 of Example 4, 2-{6-[((3R)oxolan-3-yl)amino]purin-9-yl}(4S,5S,2R,3R)-5-[(4-(trifluoromethyl)phenylthio)methyl]oxolane-3,4-diol]
– | 95 | CNC(=S)SC[C@H]1O[C@@H](n2cnc3c(N[C@@H]4CCOC4)ncnc32)[C@H](O)[C@@H]1O [Compound 74 of Example 2, 2-{6-[((3R)oxolan-3-yl)amino]purin-9-yl}(4S,5S,2R,3R)-5-{[(methylamino)thioxomethylthio]methyl}oxolane-3,4-diol]
– | 95 | O[C@@H]1[C@H](O)[C@@H](CNC(=S)NC2CCCC2)O[C@H]1n1cnc2c(N[C@@H]3CCOC3)ncnc21 [Compound 78 of Example 2, 2-{6-[((3R)oxolan-3-yl)amino]purin-9-yl}(4S,2R,3R,5R)-5-({[(cyclopentylamino)thioxomethyl]amino}methyl)oxolane-3,4-diol]
– | 48 | C=CCNC(=O)OC[C@H]1O[C@@H](n2cnc3c(N[C@@H]4CCOC4)ncnc32)[C@H](O)[C@@H]1O [Compound 41 of Example 2, [(5-{6-[((3R)oxolan-3-yl)amino]purin-9-yl}(3S,2R,4R,5R)-3,4-dihydroxyoxolan-2-yl)methoxy]-N-prop-2-enylcarboxamide]
– | 91 | O[C@@H]1[C@H](O)[C@@H](CSC(=S)NC2CCCC2)O[C@H]1n1cnc2c(N[C@@H]3CCOC3)ncnc21 [Compound 75 of Example 2]
